Experimental findings from patent US12624109B2, “αv-integrin targeted small molecule drug conjugates” (TargetThera LLC, priority 2023, dated 2026) are described below.

Series [1] deals with integrin αvβ3 expressing U87 cells. The experiment in a line: In vitro cell adhesion assay (U87 cells to fibrinogen). Type of series: cell-based, human. The conditions noted are these: 2 h, read-out: IC50, inhibition of cell adhesion to fibrinogen. From the text:
The cell adhesion assay is a cell-based assay that measures how well different compounds (i.e., different conjugates or structures) block the adhesion of integrin αvβ3 expressing U87 cells to fibrinogen, a macromolecule that binds to the integrin αvβ3 receptor. The IC50 value is the compound concentration at which the compound displaces 50% of the cell adhesion to fibrinogen, which inhibits 50% of the cells from adhering to fibrinogen.
The cell adhesion assay is a functional cell assay, so the conjugates cannot be used with chemotherapy attached, because the conjugates will release the chemo over the course of the testing, killing the cells so that no readout can be obtained. Thus, the full conjugate molecule (targeting moiety, PEG, cleavable linker) is used without the chemo for this assay. Two compounds (conjugate 74 and conjugate 59) used are slightly different integrin αvβ3 targeting pieces with a large PEG (PEG 35 and PEG39, respectively), and the VCP cleavable linker attached. […]
96-well microtiter plates were coated with up to […] fibrinogen per well in […] phosphate-buffered saline (PBS) and incubated at 4° C. overnight. […] After washing with PBS, the fluorescence intensity of adherent cells was measured at an emission wavelength of 530 nm using an excitation wavelength of 485 nm by using a Microplate Reader.

The nature of series [2]: Body weight of tumor-bearing mice (toxicity). Type of series: in vivo. The note with it: daily subcutaneous dosing; for toxicity indicated by body weight: 3 weeks; for average body weight: at conclusion of 3 weeks. On the procedure: (§1) The animal model and treatment used a total of 50 Athymic Nude-Foxn1^nu male mice which were purchased from Envigo, Indianapolis, IN, USA. The mice were housed in a clean room under strict conditions. Under the approval of the Institutional Animal Care and Use Committee, all animal protocols were carried out in line with the National Institute of Health Guide for the Care and Use of Laboratory Animals. Once cells reached 70-80% confluency, the cells were collected and counted. About 2×10^6 CWR-R1ca-Luc cells were mixed in 1:1 Matrigel® Matrix (Life Sciences, Tewksbury, MA) and injected subcutaneously into the flank of each mouse. Measurement of tumor volume of prostate cancer tumors of mice and mice weights were taken biweekly. When a palpable tumor developed, size 300-500 mm^3, mice were randomized into 10 groups with 5 mice in each group. The corresponding treatment was injected subcutaneously every day per each group up to 3 weeks. Before starting the treatment, the mice were injected with luciferin 150 mg/kg intraperitoneally. After 20 minutes, the mice were anesthetized in an induction chamber using 2% isoflurane, and bioluminescence images were taken using IVIS® Lumina III In Vivo Imaging System (PerkinElmer, Boston, MA) as a base line. Before the end of the experiment, the imaging process was repeated for all mice groups.
(§2) All compounds were dosed at 0.5 mole of compound/kg mouse each day. Thus, a 20 g mouse was dosed at […] of compound per day, and larger mice were dosed at correspondingly higher doses in proportionality to mouse body weight. […] The concentration of each formulation was adjusted so that each dose would be 10 μL solution/g mouse.
FIG. 7 is a bar graph of average body weight of the mice at the conclusion of the study period of three weeks for conjugate 59, conjugate 61, conjugate 62, MMAE chemo, and PBS (control), in accordance with embodiments of the present invention. Average body weight changes over the course of the study relative to control, particularly due to loss of body weight, which can relate to toxicity of the treatment group.

In another series the test system is CWR-R1ca-Luc cells. In words: In vivo efficacy, prostate cancer tumors in nude mice. The note with it: for average prostate cancer tumor volume: 0.5 mole of compound/kg mouse each day, subcutaneous, 3 weeks; for IVIS average photons (viable tumor tissue) / average prostate cancer tumor weight: at conclusion of 3 weeks, daily subcutaneous dosing. On the procedure: as §1, §2
FIGS. 4A, 4B, 5, 6 and 7 all pertain to the same experiment conducted with mice having prostate cancer over a study period of three weeks.

The subject of series [3] is human breast cancer MCF7 cells. The experiment in a line: In vitro cell viability assay (MTT), MCF7. Type of series: cell-based. On the procedure: [The source words this procedure for another cell line and reports this cell line under the same test.] The cell viability assay measures how effectively different compounds (i.e., different conjugates or structures) kill cancer cells in vitro. The IC50 value is the compound concentration at which the conjugate kills 50% of the cells, which inhibits 50% of the cells from remaining alive.
For the cell viability assay, the actual potency IC50 values depend on a number of factors, including the length of incubation time. Thus, the cell viability assay is particularly effective for determining the relative toxicity of different compounds.
(§3) Human glioblastoma cells (U87-luc) were seeded in 96-well plates ([…]) and were treated with the compounds of interest at concentrations 1, 3, 10, 30, and 100 µM. At the end of the experiments, the cell cultures were supplemented with MTT reagent (3-(4,5-dimethylthiazol-2-yl)-2,5-diphenyltetrazolium bromide) and incubated for an additional 4 hours. Then, dimethyl sulfoxide ([…]) was added to the cell culture to dissolve the formazan crystals and incubated for 10 minutes at room temperature. The absorbance rate of the cell cultures was read at 570 nm by using a Microplate Reader. All the reactions were performed in triplicate. Measured data of cellular proliferation were calculated using viability values of untreated control cells (100%).

Series [4] relates to human glioblastoma U87 cells. In words: In vitro cell viability assay (MTT), U87. Type of series: cell-based. The conditions noted are these: for cell viability result in words: U87 and MCF7 cells; for IC50: U87 cells. On the procedure: The cell viability assay measures how effectively different compounds (i.e., different conjugates or structures) kill cancer cells in vitro.
For the cell viability assay, the actual potency IC50 values depend on a number of factors, including the length of incubation time.
as §3

The target in the next series is T1, integrin αvβ3 receptor (Homo sapiens, UniProt P05106+P06756).
T1 construct: purchased ACRO Biosystems (Newark, DE) and/or Bioss Inc (Woburn, MA)
T1 sequence (P06756 31-992 limits assumed): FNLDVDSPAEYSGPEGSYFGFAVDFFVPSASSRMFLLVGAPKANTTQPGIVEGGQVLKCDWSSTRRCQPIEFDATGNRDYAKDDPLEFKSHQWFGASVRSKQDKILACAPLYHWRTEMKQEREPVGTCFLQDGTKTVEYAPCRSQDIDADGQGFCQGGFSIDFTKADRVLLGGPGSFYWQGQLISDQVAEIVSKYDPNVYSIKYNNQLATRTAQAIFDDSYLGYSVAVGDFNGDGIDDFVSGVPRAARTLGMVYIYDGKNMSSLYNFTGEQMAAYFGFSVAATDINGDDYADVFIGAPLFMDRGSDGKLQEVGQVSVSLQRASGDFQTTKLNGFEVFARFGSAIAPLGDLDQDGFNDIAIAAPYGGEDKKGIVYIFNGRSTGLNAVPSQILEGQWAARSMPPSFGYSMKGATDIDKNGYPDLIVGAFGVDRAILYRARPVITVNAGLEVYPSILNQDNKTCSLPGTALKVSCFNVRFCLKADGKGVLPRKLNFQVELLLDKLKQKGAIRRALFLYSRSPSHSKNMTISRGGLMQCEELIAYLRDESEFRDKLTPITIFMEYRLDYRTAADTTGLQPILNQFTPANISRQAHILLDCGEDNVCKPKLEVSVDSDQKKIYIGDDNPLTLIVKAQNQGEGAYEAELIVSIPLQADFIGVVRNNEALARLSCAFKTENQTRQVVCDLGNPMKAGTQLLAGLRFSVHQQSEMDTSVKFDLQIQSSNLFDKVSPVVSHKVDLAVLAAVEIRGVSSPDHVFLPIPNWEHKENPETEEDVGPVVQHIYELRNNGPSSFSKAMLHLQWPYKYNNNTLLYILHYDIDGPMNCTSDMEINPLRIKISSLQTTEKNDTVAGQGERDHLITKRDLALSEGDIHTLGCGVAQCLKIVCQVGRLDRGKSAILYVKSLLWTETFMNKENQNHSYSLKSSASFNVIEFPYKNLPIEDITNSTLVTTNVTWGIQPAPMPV
T1 sequence (P05106 27-718 limits assumed): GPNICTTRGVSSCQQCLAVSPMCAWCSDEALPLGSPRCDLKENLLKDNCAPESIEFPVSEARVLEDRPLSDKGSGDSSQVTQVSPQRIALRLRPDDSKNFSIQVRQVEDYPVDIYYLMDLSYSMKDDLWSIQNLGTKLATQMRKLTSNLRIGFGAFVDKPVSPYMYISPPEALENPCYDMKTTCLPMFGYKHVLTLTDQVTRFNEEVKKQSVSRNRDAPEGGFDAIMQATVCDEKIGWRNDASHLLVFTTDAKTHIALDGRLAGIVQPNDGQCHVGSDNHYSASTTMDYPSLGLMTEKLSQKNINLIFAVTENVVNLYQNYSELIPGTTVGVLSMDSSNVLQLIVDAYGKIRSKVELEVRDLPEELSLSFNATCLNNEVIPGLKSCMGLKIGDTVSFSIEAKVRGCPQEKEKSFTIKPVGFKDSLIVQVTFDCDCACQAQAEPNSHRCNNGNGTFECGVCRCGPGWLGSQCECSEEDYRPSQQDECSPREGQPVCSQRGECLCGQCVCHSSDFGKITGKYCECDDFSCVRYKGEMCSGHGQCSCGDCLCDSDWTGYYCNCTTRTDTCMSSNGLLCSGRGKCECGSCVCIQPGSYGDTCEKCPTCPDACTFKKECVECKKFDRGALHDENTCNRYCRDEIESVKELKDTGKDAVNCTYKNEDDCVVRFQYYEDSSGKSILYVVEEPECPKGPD
The experiment in a line: In vitro integrin αvβ3 binding assay. The note with it: immobilized integrin αvβ3; read-out: IC50, displacement of labelled integrin αvβ3 ligand. The text has this:
The in vitro integrin αvβ3 binding assay measures the binding affinity for different compounds (i.e., different conjugates or structures) with immobilized integrin αvβ3 receptor. The IC50 value is the compound concentration at which the compound displaces 50% of a labelled integrin αvβ3 ligand from the integrin αvβ3 receptor, which inhibits 50% of the labelled integrin αvβ3 ligand from binding to the integrin αvβ3 receptor.
Ninety-six polystyrene microtiter plate was coated with fibrinogen and incubated at 4° C. overnight. The wells were blocked with 3% BSA for 2 hours at room temperature and were washed with buffer A (50 mM Tris/HCl, 100 mM NaCl, 1 mM CaCl2), 1 mM MgCl2, 1% BSA) three times. Integrins αvβ3 and increasing concentrations of the compound of interest were added and incubated for 2 hours at room temperature, and then wells were washed three times with buffer A and incubated with a streptavidin HRP conjugate (1:1000 in buffer A) for 1 hour at room temperature. Finally, wells were washed three times with buffer A and […] peroxidase substrate TMB was added, and the reaction was terminated after 30 minutes with 50 µL of 450 nm stop solution for TMB. Absorbance was determined at 450 nm with a Microplate Reader (Bio-Rad, Hercules, CA, USA). […]

Series [5] in a line: Solubility in PBS on formulation. Type of series: physicochemical. The note with it: formulation for dosing. On the procedure: as §2

Read-outs that look alike come from different tables or passages of the source.

On to `CC(C)[C@H](NC(=O)CCOCCOCCOCc1cn(CCOCCOCCOCCOCCOCCOCCOCCOCCOCCOCCOCCOCCOCCOCCOCCOCCOCCOCCOCCOCCOCCOCCOCCOCCOCCOCCOCCOCCOCCOCCOCCOCCOCCOCCOCCOCCC(=O)NC[C@H](NS(=O)(=O)c2ccccc2)C(=O)O)nn1)C(=O)N[C@@H](CCCNC(N)=O)C(=O)Nc1ccc(CO)cc1` [conjugate 59], for which the IC50 in series [1] stood at 103 ± 1.7 nM.
Consider `CC[C@H](C)[C@@H]([C@@H](CC(=O)N1CCC[C@H]1[C@H](OC)[C@@H](C)C(=O)N[C@H](C)[C@@H](O)c1ccccc1)OC)N(C)C(=O)[C@@H](NC(=O)[C@H](C(C)C)N(C)C(=O)OCc1ccc(NC(=O)[C@H](CCCNC(N)=O)NC(=O)[C@@H](NC(=O)CCOCCOCCOCc2cn(CCOCCOCCOCCOCCOCCOCCOCCOCCOCCOCCOCCOCCOCCOCCOCCOCCOCCOCCOCCOCCOCCOCCOCCOCCOCCOCCOCCOCCOCCOCCOCCOCCOCCOCCOCCOCCC(=O)NC[C@H](NS(=O)(=O)c3ccccc3)C(=O)O)nn2)C(C)C)cc1)C(C)C` [conjugate 61], for which, in series [2], the “toxicity indicated by body weight” value is on record as “mild toxicity” and the average body weight entry is “only a small difference compared to the PBS control”. Besides, in the series on CWR-R1ca-Luc cells, the “average prostate cancer tumor volume” value was “inhibits tumor growth more than the PEG15 conjugate 62”; the “IVIS average photons (viable tumor tissue)” value was “much smaller than the smaller PEG15 conjugate 62 and MMAE alone”; the “average prostate cancer tumor weight” value is given as “comparable to the smaller PEG15 MMAE conjugate 62”.
In series [3] (Homo sapiens), `Nc1ccn([C@@H]2O[C@H](CO)[C@@H](O)C2(F)F)c(=O)n1` [Gemcitabine, reference compound] returned an IC50 of 1790 nM.
In the case of `CCc1c2c(nc3ccc(O)cc13)-c1cc3c(c(=O)n1C2)COC(=O)[C@@]3(CC)OC(=O)N(C)CCN(C)C(=O)OCc1ccc(NC(=O)[C@H](CCCNC(N)=O)NC(=O)[C@@H](NC(=O)CCc2cn(CCOCCOCCOCCOCCOCCOCCOCCOCCOCCOCCOCCOCCOCCOCCOCCOCCOCCOCCOCCOCCOCCOCCOCCOCCOCCOCCOCCOCCOCCOCCOCCOCCOCCOCCOCCOC)nn2)C(C)C)cc1` [conjugate 73], the concentration for half-maximal inhibition (IC50) in series [3] and in series [4] was greater than 10000 nM in each case. The “cell viability result in words” value in series [4] is on record as “no activity”.
Turning to `CC(C)[C@H](NC(=O)CCc1cn(CCOCCOCCOCCOCCOCCOCCOCCOCCOCCOCCOCCOCCOCCOCCOCCOCCOCCOCCOCCOCCOCCOCCOCCOCCOCCOCCOCCOCCOCCOCCOCCOCCOCCOCCOCCNC(=O)CCC(NS(=O)(=O)c2ccccc2)C(=O)O)nn1)C(=O)N[C@@H](CCCNC(N)=O)C(=O)Nc1ccc(COC(=O)Nc2ccn([C@@H]3O[C@H](CO)C(O)C3(F)F)c(=O)n2)cc1` (some centres unmarked) [conjugate 45], the IC50 is 0.84 ± 0.16 nM at integrin αvβ3 receptor and 3970 nM in series [3].
Take `CCc1c2c(nc3ccc(O)cc13)-c1cc3c(c(=O)n1C2)COC(=O)[C@]3(O)CC` [SN38, reference compound]: the IC50 in series [3] (Homo sapiens) is 5.67 nM; in series [4] (Homo sapiens, U-87 MG) it was 4.32 nM.
In series [4] (Homo sapiens, U-87 MG), `NC(=O)c1cccc2cn(-c3ccc([C@@H]4CCCNC4)cc3)nc12` [Niraparib, reference compound] showed a 50% inhibitory concentration (IC50) of 155 nM.
On to `CC(C)[C@H](NC(=O)CCc1cn(CCOCCOCCOCCOCCOCCOCCOCCOCCOCCOCCOCCOCCOCCOCCOCCOCCOCCOCCOCCOCCOCCOCCOCCOCCOCCOCCOCCOCCOCCOCCOCCOCCOCCOCCOCCNC(=O)CC[C@H](NS(=O)(=O)c2ccccc2)C(=O)O)nn1)C(=O)N[C@@H](CCCNC(N)=O)C(=O)Nc1ccc(CO)cc1` [conjugate 74], for which the half-maximal inhibitory concentration (IC50) in series [1] is 54 ± 2.2 nM; in series [3], greater than 10000 nM; in series [4], greater than 10000 nM. For the same molecule, in series [4], the “cell viability result in words” value was “does not cause cell death”.
On to `CC[C@H](C)[C@@H](C(CC(=O)N1CCC[C@H]1[C@H](OC)[C@@H](C)C(=O)N[C@H](C)[C@@H](O)c1ccccc1)OC)N(C)C(=O)[C@@H](NC(=O)[C@@H](NC)C(C)C)C(C)C` (some centres unmarked) [MMAE, monomethylauristatin E, reference compound], for which, in series [2], the “toxicity indicated by body weight” value was “high toxicity” and the average body weight entry was “a loss of body weight over the course of the experiment”. Besides, in the series with CWR-R1ca-Luc cells, the “average prostate cancer tumor volume” value is on record as “smaller tumor volumes than the non-MMAE conjugate 59”, the “IVIS average photons (viable tumor tissue)” value was “smaller IVIS® numbers than the non-MMAE conjugate 59” and the “average prostate cancer tumor weight” value is given as “smaller tumor weights than the non-MMAE conjugate 59”. Moreover, in series [5], the “solubility in straight PBS” value was “less soluble in straight PBS”. In series [3] (Homo sapiens), this molecule had an IC50 of 3.85 nM. The same molecule gave a half-maximal inhibitory concentration (IC50) in series [4] (Homo sapiens, U-87 MG) of 2.51 nM.
With `CC(C)[C@H](NC(=O)CCc1cn(CCOCCOCCOCCOCCOCCOCCOCCOCCOCCOCCOCCOCCOCCOCCOCCOCCOCCOCCOCCOCCOCCOCCOCCOCCOCCOCCOCCOCCOCCOCCOCCOCCOCCOCCOCCNC(=O)CC[C@H](NS(=O)(=O)c2ccccc2)C(=O)O)nn1)C(=O)N[C@@H](CCCNC(N)=O)C(=O)Nc1ccc(COC(=O)N2CCCC(c3ccc(-n4cc5cccc(C(N)=O)c5n4)cc3)C2)cc1` (some centres unmarked) [conjugate 40], the values for the IC50 (on integrin αvβ3 receptor; in series [4]) were 3.36 ± 0.22 nM and 1740 nM, respectively.

Broadly, the IC50 is the point on the concentration scale where inhibition reaches its midpoint.
